Measured values reported in patent US20160264593A1 (priority 2013, published 2016).
Several values for one entry are separate records, joined by “and”; a condition that tells them apart may be missing. Identical values can stand only once. Like-named read-outs stand apart in the source and are kept apart here.

What was measured:
[1] = system: PP2A; assay: PP2A immunoprecipitation phosphatase assay on mouse liver lysate, OA added to the reaction (positive control); assay type: biochemical, Balb/c mice
Description: (§1) Coomassie (Bradford) Protein Assay Kit (Pierce); PP2A Immunoprecipitation Phosphatase Assay Kit (Millipore); Lysate preparation for low endogenous phosphate: 20 mM imidazole-HCl, 2 mM EDTA, 2 mM EGTA, 1 mM PMSF, 1 mM benzamidine, 10 ug/ml each of aprotinin, leupeptin, antipain, soybean trypsin inhibitor; Normal Mouse IgG (Millipore); Okadaic acid (OA) (Tocris); DMSO (Sigma).
1. Mouse brain or liver was homogenized using lysis buffer (25 g/L), centrifuged at 12000 g for 10 minutes at […], and the supernatants were collected. 2. The protein was quantitated, and 240 μg of mouse brain or liver lysate was taken to assay phosphatase activity. 3. Added 4 μg of Anti-PP2A or 4 μg Normal mouse IgG as an IP control. 4. Added 30 μl Protein A agarose slurry. 5. Brought volume to 500 μl with pNPP Ser/Thr Assay Buffer. 6. Incubated for 2 h at 4° C. with constant rocking. 7. Washed beads 3 times with 700 μl TBS, followed by one wash with 500 μl Ser/Thr Assay Buffer. 8. Added 20 μl of Ser/Thr Assay Buffer. (In order to determine the linear range of PP2A amount for enzymatic reaction, different amounts of precipitated PP2A were used for subsequent phosphatase assay.) 9. Added 60 μl of diluted phosphopeptide (final concentration would be 750 μM) 10. Added OA (5 μM & 5 nM) or DMSO to the reaction system. 11. […]
14. […] Measured absorbance at a wavelength between […] in a microliter plate reader.

[2] = system: PP2A; assay: PP2A immunoprecipitation phosphatase assay on mouse brain lysate, OA added to the reaction (positive control); assay type: biochemical, Balb/c mice
Description: as §1
1. Mouse brain or liver was homogenized using lysis buffer (25 g/L), centrifuged at 12000 g for 10 minutes at […], and the supernatants were collected. 2. The protein was quantitated, and 240 μg of mouse brain or liver lysate was taken to assay phosphatase activity. 3. Added 4 μg of Anti-PP2A or 4 μg Normal mouse IgG as an IP control. 4. Added 30 μl Protein A agarose slurry. 5. Brought volume to 500 μl with pNPP Ser/Thr Assay Buffer. 6. Incubated for 2 h at 4° C. with constant rocking. 7. Washed beads 3 times with 700 μl TBS, followed by one wash with 500 μl Ser/Thr Assay Buffer. 8. Added 20 μl of Ser/Thr Assay Buffer. (In order to determine the linear range of PP2A amount for enzymatic reaction, different amounts of precipitated PP2A were used for subsequent phosphatase assay.) 9. Added 60 μl of diluted phosphopeptide (final concentration would be 750 μM) 10. Added OA (5 μM & 5 nM) or DMSO to the reaction system. 11. Incubated for 10 minutes at 30° C. in a shaking incubator. 12. Centrifuged briefly and transferred 25 μl into each well of the microliter plate to be used.
13. Added 100 μl of Malachite Green Phosphate Detection Solution AB.
14. Let color develop for 10-15 minutes at RT. 15. Measured absorbance at a wavelength between […] in a microliter plate reader.

[3] = iv daily for 5 days, phase I; cited from earlier work
[4] = Pharmacokinetic study of 153 (and metabolite endothal) in SD rats, iv and po; plasma, liver, brain; assay type: in vivo
Description: The blood, liver and brain tissue samples were collected at predetermined times from rats. […] Compound were diluted shortly before use in 4% sodium bicarbonate for sterile injection (this is the standard pediatric solution of NaHCO3 with a pH of about 8.5).
Compound 153 was freshly prepared by diluting the drugs shortly before use in 4% sodium bicarbonate for sterile injection (this is the standard pediatric solution of NaHCO3 with a pH of about 8.5). The final concentrations of 153 solutions were 0.25 mg/mL. The 153 solutions were administered via iv or po route at dose volume of 5 ml/kg according to the latest body weight. Compound 157 was freshly prepared by diluting the drugs shortly before use in 4% sodium bicarbonate for sterile injection (this is the standard pediatric solution of NaHCO3 with a pH of about 8.5). The final concentrations of […] solutions were 0.3 mg/mL. The 157 solutions were administered via iv or po route at dose volume of 5 ml/kg according to the latest body weight.
Twelve (12) female SD rats per group were dosed by iv with 153 or 157. The rats were fasted overnight prior to dosing, with free access to water. Foods were withheld for 2 hours post-dose. Blood, liver and brain tissue samples in two animals each group were collected at each time point, within 10% of the scheduled time for each time point. Two extra animals were used for analytic method development.
Blood (>0.3 mL) were collected via aorta abdominalis in anaesthetic animals into tubes containing heparin at 15 min, 1, 2, 6, 10 and 24 hours after iv administration. Liver and brain tissues were collected immediately after animal death. The liver and brain tissues were excised and rinsed with cold saline to avoid blood residual. Upon collection, each sample was placed on ice and the blood samples were subsequently centrifuged (4° C., 11000 rpm, 5 min) to separate plasma. The obtained plasma, liver and brain tissue samples were stored at −70° C. until LC-MS/MS analysis.
Two (2) female SD rats per group were dosed by po with 153 or 157. The rats were fasted overnight prior to dosing, with free access to water. Foods were withheld for 2 hours post-dose. Blood samples (>0.3 mL) were collected via aorta abdominalis in anaesthetic animals into tubes containing heparin at 30 min, 1, 2, 6, 10 and 24 hours after po administration.
To each sample, 20 μL IS-D (for blank samples, 20 μL acetonitrile:water (1:1) was added) and 300 μl acetonitrile was added. The sample mixture was vortexed for approximately 3 min. After centrifugation at 10000 rpm for 5 min at 4° C., 100 μL of the upper layer was transferred to a new tube and added 200 μL 0.4% formic acid in water (pH 6.0). The mixture was vortexed for approximately 3 min before injected onto the LC/MS/MS system for analysis.
On the day of the assay, the frozen liver and brain samples were thawed unassisted at room temperature. An about 200 mg weighed sample of each thawed tissue was placed into a plastic tube with water (0.6 mL) to facilitate homogenization. Tissue processing was conducted using a homogenizer for approximately 1 min, 200 μl homogenate was transferred into a fresh Eppendorf tube. To each tube, 50 μL IS-D was added and mixed. Then 600 μl acetonitrile was added and the sample mixture was vortexed for approximately 3 min. After centrifugation at 10000 rpm for 5 min at 4° C., 400 μL of the upper layer was transferred to a new tube and evaporate the supernatant to dryness at 35° C. Reconstitute the residue with 200 μL of 0.4% formic acid in water (pH6.0), and vortex for 3 min, submit for LC-MS/MS analysis.
Frozen unknown plasma samples were completely thawed at room temperature and vortexed thoroughly. With a pipette, 50 μL of plasma was transferred into a 2.0 mL Eppendorf tube. 50 μL of 0.1N HCl and 800 μL ethyl acetate were added into each sample. The sample mixture was vortexed for approximately 3 min.

[5] = system: breast cancer (2LMP) cells; assay: WST cell viability assay, 2LMP
Description: (§2) IC50 values were obtained for cytotoxicity against breast cancer (2LMP), glioblastoma (U-87) and lung cancer (A549) cells (See Table 5 and FIGS. 3-5).

[6] = system: glioblastoma (U-87) cells; assay: WST cell viability assay, U-87 MG; assay type: cell-based; conditions: for IC50: read-out: IC50 U-87 MG; for cytotoxicity against glioblastoma cells (statement): WST, U-87
[7] = system: breast cancer (2LMP) cells
Description: as §2

[8] = system: lung cancer (A549) cells; assay: WST cell viability assay, A549; assay type: cell-based; conditions: for IC50: WST-20131028, read-out: IC50 A549; for cytotoxicity against lung cancer cells (statement): WST
[9] = 5 nM OA in the reaction, brain sample M1-1
[10] = 5 μM OA in the reaction, brain sample M1-1
[11] = End. in plasma after 153 1.25 mg/kg IV, Mean
[12] = End. in plasma after 153 1.25 mg/kg IV, rat 1
[13] = End. in plasma after 153 1.25 mg/kg IV, rat 2
[14] = End. in plasma after 153 1.25 mg/kg PO, Mean
[15] = End. in plasma after 153 1.25 mg/kg PO, rat 1
[16] = End. in plasma after 153 1.25 mg/kg PO, rat 2
[17] = Endothal in liver after single iv 153 1.25 mg/kg, Mean
[18] = Endothal in liver after single iv 153 1.25 mg/kg, rat 1
[19] = Endothal in liver after single iv 153 1.25 mg/kg, rat 2
[20] = read-out: IC50 2LMP, WST-20131015 (first value of the cell)
[21] = read-out: IC50 2LMP, WST-20131025 (second value of the cell)

C=C1[C@@H](O)[C@@H]2O[C@]3(CC[C@H](/C=C/[C@@H](C)[C@@H]4CC(C)=C[C@@]5(O[C@H](C[C@@](C)(O)C(=O)O)CC[C@H]5O)O4)O3)CC[C@H]2O[C@@H]1[C@@H](O)C[C@H](C)[C@H]1O[C@@]2(CCCCO2)CC[C@H]1C [OA, Okadaic acid]
activity of PP2A in livers, positive control (statement) [1]: significantly inhibited
Average Conc. [2, 9]: 270.60
Average Relative Activity (vehicle = 100) [2, 9]: 12.46
Conc. (phosphate, single reading) [2, 9]: 282.72 and 271.21
Mean Conc. [2, 9]: 276.96
Mean Conc. less IgG blank [2, 9]: 270.60
Relative Conc. [2, 9]: 0.12
Relative PP2A Activity (vehicle = 100) [2, 9]: 12.46
Average Conc. [2, 10]: −5.54
Average Relative Activity (vehicle = 100) [2, 10]: −0.38
Mean Conc. [2, 10]: 0.82
Mean Conc. less IgG blank [2, 10]: −5.54
Relative Conc. [2, 10]: 0.00
Relative PP2A Activity (vehicle = 100) [2, 10]: −0.38
activity of PP2A in brains, positive control (statement) ([2]; OA added to the reaction): significantly inhibited

C[C@@](O)(/C=C/[C@H]1CC=CC(=O)O1)[C@@H](C[C@@H](O)\C=C/C=C\C=C\CO)OP(=O)(O)O [fostriecin]
dose limiting toxicity [3]: not achieved
major toxicities [3]: reversible non-cumulative increases in serum creatinine and hepatic enzymes

O=C(O)C1C2CCC(O2)C1C(=O)O (stereo not shown) [End.]
AUC [4, 11]: 378 ng·h/mL
AUC0-∞ [4, 11]: 600 ng·h/mL
Cmax [4, 11]: 70.5 ng/mL
MRT (0-t) [4, 11]: 3.34 h
T1/2 [4, 11]: 5.2 h
Tmax [4, 11]: 1.13 h
AUC [4, 12]: 482 ng·h/mL
AUC0-∞ [4, 12]: 618 ng·h/mL
Cmax [4, 12]: 77.1 ng/mL
MRT (0-t) [4, 12]: 3.93 h
T1/2 [4, 12]: 4.37 h
Tmax [4, 12]: 2 h
AUC [4, 13]: 274 ng·h/mL
AUC0-∞ [4, 13]: 581 ng·h/mL
Cmax [4, 13]: 63.8 ng/mL
MRT (0-t) [4, 13]: 2.74 h
T1/2 [4, 13]: 6.02 h
Tmax [4, 13]: 0.25 h
AUC [4, 14]: 179 ng·h/mL
AUC0-∞ [4, 14]: 364 ng·h/mL
Cmax [4, 14]: 46.9 ng/mL
MRT (0-t) [4, 14]: 2.76 h
T1/2 [4, 14]: 5.49 h
Tmax [4, 14]: 0.75 h
AUC [4, 15]: 189 ng·h/mL
AUC0-∞ [4, 15]: 395 ng·h/mL
Cmax [4, 15]: 53.6 ng/mL
MRT (0-t) [4, 15]: 2.8 h
T1/2 [4, 15]: 5.53 h
Tmax [4, 15]: 1 h
AUC [4, 16]: 169 ng·h/mL
AUC0-∞ [4, 16]: 333 ng·h/mL
Cmax [4, 16]: 40.2 ng/mL
MRT (0-t) [4, 16]: 2.72 h
T1/2 [4, 16]: 5.45 h
Tmax [4, 16]: 0.5 h
MRT (0-t) [4, 17]: 3.24 h
T1/2 [4, 17]: 2.79 h
Tmax [4, 17]: 2 h
T1/2 [4, 18]: 3 h
Tmax [4, 18]: 2 h
MRT (0-t) [4, 19]: 3.43 h
T1/2 [4, 19]: 2.57 h
Tmax [4, 19]: 2 h

CCCCC/C=C/C/C=C/CCCCCCCCOC(=O)C1C2CCC(O2)C1C(=O)N1CCN(C)CC1 (stereo not shown) [Compound 158, 3-(4-Methylpiperazine-1-carbonyl)-7-oxa-bicyclo [2,2,1] heptane-2-carboxylic acid linoleyl ester]
IC50 [5, 20]: 9.19 µM
IC50 [5, 21]: 12.8 µM
IC50 ([6]; Homo sapiens, U-87 MG, WST-20131017 (first value of the cell)): 15.2 µM
IC50 ([6]; Homo sapiens, U-87 MG, WST-20131024 (second value of the cell)): 8.28 µM
cytotoxicity against glioblastoma cells (statement) [6]: cytotoxic
cytotoxicity against breast cancer cells (statement) [7]: cytotoxic
cytotoxicity relative to 100 (statement) [7]: increased cytotoxicity relative to 100
IC50 ([8]; Homo sapiens, A549): 8.74 µM
cytotoxicity against lung cancer cells (statement) ([8]; A549): cytotoxic

CCCCCCCCCCCCCCCCCOC(=O)C1C2CCC(O2)C1C(=O)N1CCN(C)CC1 (stereo not shown) [Compound 159]
cytotoxicity against breast cancer cells (statement) ([5]; WST, 2LMP): cytotoxic
cytotoxicity relative to 100 (statement) ([5]; cell line not specified (2LMP, U-87, A549 tested)): increased cytotoxicity relative to 100
IC50 [5, 20]: 4.66 µM
IC50 [5, 21]: 4.62 µM
cytotoxicity against glioblastoma cells (statement) [6]: cytotoxic
IC50 ([6]; WST-20131017 (first value of the cell)): 5.41 µM
IC50 ([6]; WST-20131024 (second value of the cell)): 5.07 µM
cytotoxicity against lung cancer cells (statement) ([8]; A549): cytotoxic
IC50 [8]: 4.71 µM
